Experimental data: PubChem BioAssay AID1919010 (Molecular Pharmacology Branch, DTP, NCI, 2023)
Where “and” joins values, the source holds several entries; their conditions need not be identical. Identical values can stand only once. Blank lines part the entries; values can stand above or below the molecule they belong to.

Test system: Hs578T complex spheroid growth, percent test/control
Test: Anticancer human tumor Hs578T cell line growth inhibition [AhR];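 note: luminescent viability signal as a proxy for spheroid growth; spheroids exposed to agents for one week after three days of growth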
Conditions: for viability, T/C: stronger effect = lower value
Excerpt: Multicellular complex tumor spheroid response to aryl hydrocarbon receptor antagonists in combination with a variety of drugs and investigational agents in selected tumor cell lines
The current study was undertaken to assess response to aryl hydrocarbon receptor antagonists in combination with standard-of-care drugs and investigational agents in solid tumor complex spheroid models. Complex spheroids include a stromal component modeled by human endothelial cells (HUVEC) and fibroblasts modeled by human mesenchymal stem cells (MSCs). The concentration ranges selected for each drug and investigational agent were based upon clinically achievable concentrations if the clinical Cmax of the agent was known.
Compounds. The drugs and investigational agents: BAY 2416964 (NSC825713), GNF351 (NSC835774), CH-223191 (NSC835775), CPI-455 (NSC825282), aza-TdCyd (NSC777586), decitabine (NSC127716), belinostat (NSC758774), entinostat (NSC756642), pevonedistat (NSC761192), tazemetostat (NSC777109), talazoparib (NSC765396), olaparib (NSC753686), selinexor (NSC780203), nedisertib (M3814, NSC802822), bortezomib (NSC756655), venetoclax (NSC766270), doxorubicin (NSC123127), elimusertib (BAY189344, NSC800525), ceralasertib (AZD6738, NSC777638), TAK-243 (NSC785004), alisertib (NSC759677), etoposide (NSC141540), topotecan (NSC609699), eribulin (NSC707389), gemcitabine (NSC613327), carboplatin (NSC241240), cisplatin (NSC119875), and SN-38 (NSC673596) were obtained from the National Cancer Institute (NCI) Developmental Therapeutics Program Chemical Repository (32). The FDA-approved anticancer drug set is available from the Developmental Therapeutics Program at https://dtp.cancer.gov/organization/dscb/obtaining/available plates.htm. […] The stock solutions were prepared in dimethyl sulfoxide (DMSO, Sigma-Aldrich, St. Louis, MO, cat. D2650), except for the platinum compounds which were prepared in saline (Quality Biological, Gaithersburg, MD, cat. 114-055-101), at 800-fold the tested concentration and stored at -70 degrees C prior to their use. All drugs and investigational agents were tested over a range starting from a high concentration at or near the clinical Cmax and decreasing in half-log increments. If the clinical Cmax for an agent had not been determined, the highest concentration tested was 10 microM (Table 1).
Cell Culture. All cells were maintained in an incubator at 37 degrees C and 5% CO2 with 95% humidity. The PDC lines were cultured according to standard operating procedures established by the NCI PDMR (https://pdmr.cancer.gov). Briefly, all PDCs were thawed and cultured in Matrigel-coated flasks prepared with a working solution of 1X Ham's F-12 nutrient mix, without supplementation (Invitrogen, Waltham, MA, cat. 11765054), 100 U/mL penicillin-streptomycin (Invitrogen, cat. 15140122), and 2.5% Matrigel (Corning Inc., Corning, NY, cat. 354248) for the first three passages. All PDCs were cultured in complete DMEM/F-12 media containing advanced DMEM/F-12 (Invitrogen, cat. 12634028), 4.9% defined fetal bovine serum, heat inactivated (HyClone Laboratories Inc., Logan, UT, cat. SH30070.03HI), 389 ng/mL hydrocortisone (Sigma-Aldrich, cat. H4001), 9.7 ng/mL human EGF recombinant protein (Invitrogen, cat. PHG0313), 23.4 microg/mL adenine (Sigma-Aldrich, cat. A2786), 97.3 U/mL penicillin-streptomycin (Invitrogen, cat. 15140122), 1.9 mM L-glutamine (Invitrogen, cat. 25030081), and 9.7 microM Y-27632 dihydrochloride (Tocris Bioscience, Bristol, United Kingdom, cat. 1254). The PDCs were cultured in complete DMEM/F12 media without 10 microM Y-27632 dihydrochloride for at least two passages prior to the screen. The established cell lines NCI-H1341 and […] were cultured in DMEM/F-12, HEPES (Invitrogen, cat. 11330032), 5% defined fetal bovine serum (HyClone Laboratories Inc., cat. SH30070.03), ITS premix universal culture supplement [insulin (5 microg/mL), transferrin (5 microg/mL), and selenious acid (5 ng/mL)] […]

[1] = curve of first compound, second compound 0.1 µM
[2] = curve of first compound, second compound 0.316 µM
[3] = curve of first compound, second compound 1 µM
[4] = curve of first compound, second compound 3.16 µM
[5] = curve of first compound, second compound 10 µM
[6] = second compound 0.1 µM, first compound 0.0316 µM
[7] = second compound 0.1 µM, first compound 0.1 µM
[8] = second compound 0.316 µM, first compound 0.0316 µM
[9] = second compound 0.316 µM, first compound 0.1 µM
[10] = second compound 1 µM, first compound 0.0316 µM
[11] = second compound 1 µM, first compound 0.1 µM
[12] = second compound 3.16 µM, first compound 0.0316 µM
[13] = second compound 3.16 µM, first compound 0.1 µM
[14] = second compound 10 µM, first compound 0.0316 µM
[15] = second compound 10 µM, first compound 0.1 µM
[16] = second compound 0.1 µM, first compound 0.316 µM
[17] = second compound 0.1 µM, first compound 1 µM
[18] = second compound 0.1 µM, first compound 3.16 µM
[19] = second compound 0.1 µM, first compound 10 µM
[20] = second compound 0.316 µM, first compound 0.316 µM
[21] = second compound 0.316 µM, first compound 1 µM
[22] = second compound 0.316 µM, first compound 3.16 µM
[23] = second compound 0.316 µM, first compound 10 µM
[24] = second compound 1 µM, first compound 0.316 µM
[25] = second compound 1 µM, first compound 1 µM
[26] = second compound 1 µM, first compound 3.16 µM
[27] = second compound 1 µM, first compound 10 µM
[28] = second compound 3.16 µM, first compound 0.316 µM
[29] = second compound 3.16 µM, first compound 1 µM
[30] = second compound 3.16 µM, first compound 3.16 µM
[31] = second compound 3.16 µM, first compound 10 µM
[32] = second compound 10 µM, first compound 0.316 µM
[33] = second compound 10 µM, first compound 1 µM
[34] = second compound 10 µM, first compound 3.16 µM
[35] = second compound 10 µM, first compound 10 µM

IC50 [1]: > 0.1 µM
IC50 [2]: > 0.1 µM
IC50 [3]: > 0.1 µM
IC50 [4]: > 0.1 µM
IC50 [5]: > 0.1 µM
SMILES: Cn1ncnc1C1c2n[nH]c(=O)c3cc(F)cc(c23)NC1c1ccc(F)cc1 (stereo unspecified) + Cc1ccccc1N=Nc1ccc(NC(=O)c2ccnn2C)c(C)c1
viability, T/C (second compound 0.1 µM, first compound 0.000316 µM): 109%
viability, T/C (second compound 0.1 µM, first compound 0.001 µM): 104%
viability, T/C (second compound 0.1 µM, first compound 0.00316 µM): 105%
viability, T/C (second compound 0.1 µM, first compound 0.01 µM): 105%
viability, T/C [6]: 100%
viability, T/C [7]: 99.5%
viability, T/C (second compound 0.316 µM, first compound 0.000316 µM): 121%
viability, T/C (second compound 0.316 µM, first compound 0.001 µM): 117%
viability, T/C (second compound 0.316 µM, first compound 0.00316 µM): 109%
viability, T/C (second compound 0.316 µM, first compound 0.01 µM): 105%
viability, T/C [8]: 106%
viability, T/C [9]: 107%
viability, T/C (second compound 1 µM, first compound 0.000316 µM): 108%
viability, T/C (second compound 1 µM, first compound 0.001 µM): 105%
viability, T/C (second compound 1 µM, first compound 0.00316 µM): 107%
viability, T/C (second compound 1 µM, first compound 0.01 µM): 104%
viability, T/C [10]: 107%
viability, T/C [11]: 99.7%
viability, T/C (second compound 3.16 µM, first compound 0.000316 µM): 94.4%
viability, T/C (second compound 3.16 µM, first compound 0.001 µM): 103%
viability, T/C (second compound 3.16 µM, first compound 0.00316 µM): 101%
viability, T/C (second compound 3.16 µM, first compound 0.01 µM): 93.9%
viability, T/C [12]: 99.9%
viability, T/C [13]: 99%
viability, T/C (second compound 10 µM, first compound 0.000316 µM): 73.7%
viability, T/C (second compound 10 µM, first compound 0.001 µM): 71.2%
viability, T/C (second compound 10 µM, first compound 0.00316 µM): 76.7%
viability, T/C (second compound 10 µM, first compound 0.01 µM): 81.7%
viability, T/C [14]: 69%
viability, T/C [15]: 72.2%

IC50 (curve of compound): > 0.1 µM
SMILES: Cn1ncnc1C1c2n[nH]c(=O)c3cc(F)cc(c23)NC1c1ccc(F)cc1 (stereo unspecified)
viability, T/C (compound 0.000316 µM): 92.2% and 98.6% and 103%
viability, T/C (compound 0.001 µM): 104% and 105% and 101%
viability, T/C (compound 0.00316 µM): 113% and 105% and 109%
viability, T/C (compound 0.01 µM): 106% and 105% and 103%
viability, T/C (compound 0.0316 µM): 97.6% and 104% and 106%
viability, T/C (compound 0.1 µM): 102% and 96.8% and 95.4%

IC50 [1]: > 10 µM
IC50 [2]: > 10 µM
IC50 [3]: > 10 µM
IC50 [4]: > 10 µM
IC50 [5]: > 10 µM
SMILES: O=C(c1cc(Cc2n[nH]c(=O)c3ccccc23)ccc1F)N1CCN(C(=O)C2CC2)CC1 + Cc1ccccc1N=Nc1ccc(NC(=O)c2ccnn2C)c(C)c1
viability, T/C [6]: 96.8%
viability, T/C [7]: 104%
viability, T/C [16]: 109%
viability, T/C [17]: 101%
viability, T/C [18]: 96.9%
viability, T/C [19]: 80.9%
viability, T/C [8]: 101%
viability, T/C [9]: 107%
viability, T/C [20]: 100%
viability, T/C [21]: 101%
viability, T/C [22]: 88.2%
viability, T/C [23]: 72.1%
viability, T/C [10]: 104%
viability, T/C [11]: 109%
viability, T/C [24]: 104%
viability, T/C [25]: 99.6%
viability, T/C [26]: 104%
viability, T/C [27]: 81.3%
viability, T/C [12]: 96.9%
viability, T/C [13]: 97.7%
viability, T/C [28]: 94.9%
viability, T/C [29]: 96.8%
viability, T/C [30]: 85.9%
viability, T/C [31]: 72.3%
viability, T/C [14]: 66.8%
viability, T/C [15]: 70.7%
viability, T/C [32]: 76.5%
viability, T/C [33]: 69.3%
viability, T/C [34]: 67.6%
viability, T/C [35]: 63.5%

Further lines, the molecule ahead of its results:

SMILES: COc1cc(C2c3cc4c(cc3C(OC3OC5COC(C)OC5C(O)C3O)C3COC(=O)C23)OCO4)cc(OC)c1O (stereo unspecified) + CC(CO)NC(=O)c1cc(-c2ccc(Cl)cc2)nn(-c2cnn(C)c2)c1=O
IC50 [1]: > 10 µM
IC50 [2]: > 10 µM
IC50 [3]: > 10 µM
IC50 [4]: > 10 µM
IC50 [5]: > 10 µM
viability, T/C [6]: 103%
viability, T/C [7]: 109%
viability, T/C [16]: 87.9%
viability, T/C [17]: 79.2%
viability, T/C [18]: 81%
viability, T/C [19]: 64.9%
viability, T/C [8]: 111%
viability, T/C [9]: 99.2%
viability, T/C [20]: 105%
viability, T/C [21]: 83.2%
viability, T/C [22]: 73.8%
viability, T/C [23]: 57.1%
viability, T/C [10]: 108%
viability, T/C [11]: 123%
viability, T/C [24]: 88.7%
viability, T/C [25]: 80.1%
viability, T/C [26]: 89.1%
viability, T/C [27]: 60.5%
viability, T/C [12]: 116%
viability, T/C [13]: 102%
viability, T/C [28]: 99.9%
viability, T/C [29]: 86.2%
viability, T/C [30]: 79.2%
viability, T/C [31]: 60.7%
viability, T/C [14]: 83.7%
viability, T/C [15]: 88.3%
viability, T/C [32]: 89.1%
viability, T/C [33]: 76.6%
viability, T/C [34]: 83.4%
viability, T/C [35]: 58.9%

SMILES: Cc1ccccc1N=Nc1ccc(NC(=O)c2ccnn2C)c(C)c1
viability, T/C (compound 0.1 µM): 101% [middle of 20 runs]
viability, T/C (compound 1 µM): 102% [middle of 20 runs]
viability, T/C (compound 10 µM): 64.6% [middle of 20 runs]
IC50 (compound alone, run of 08/22/2022): > 10 µM
